From PMC5861040, “Identification of di-substituted ureas that prevent growth of trypanosomes through inhibition of translation initiation” (Scientific Reports, 2018)
“Also recorded” adds a separate entry of the source.

Tests used:
heme regulated kinase = system: heme regulated kinase; parameters: method as in PMID 21765405; settings: cited from earlier work
[1] = system: T. brucei procyclic form (PCF); test: T. brucei procyclic form multiplication (parasite counting); assay type: cell-based, Trypanosoma brucei; settings: 48 hours at 28 °C, Fig. 1B
T. cruzi epimastigotes [2] = test: Alamar Blue viability assay of T. cruzi epimastigotes; assay type: cell-based, Trypanosoma cruzi (Y strain); settings: Trypanosoma cruzi, 72 h, epimastigotes incubated 3 days with compound; for EC50: concentration inhibiting 50% of multiplication; for EC90: concentration inhibiting 90% of multiplication
Description: T. cruzi epimastigotes were incubated in culture medium for three days with 25 different compounds at 10 µM.
T. cruzi epimastigotes at 1 × 10^7/mL in 50 µL were incubated in 96-wells plates with the same volume of compounds pre-diluted in 50 µL of LIT medium for 48 hours at 28 °C. LLC-MK2 cells (3 × 10^3) in 100 µL of medium were added to 96 well plates. After 5 hours, the medium was replaced by fresh medium containing serial dilutions of test compounds and incubations proceeded for 72 hours at 37 °C. In both cases, 10 µL of AlamarBlue (Thermo Fisher Scientific) was added and the plates were further incubated for 18 hours at 28 °C for epimastigotes and 4 hours at 37 °C for mammalian cells. Absorbance at 570 nm and 600 nm were measured by using a SpectraMax M3 (Molecular Devices). The differences between absorbance at 570 nm and 600 nm for each well was normalized against a blank value for medium without parasites and lysed cells. Alternatively, L6 rat myoblast cell death and lysis were determined using the cytotoxicity Detection Kit Plus LDH Version 6 (Roche) after 72 hours incubation with the indicated compounds using the manufacturer protocol. […] Each compound was tested in triplicates in at least two independent experiments, with exceptions appointed on Table 1. Selective index was estimated by the ratio between LLC-MK2 EC50 and epimastigotes EC50 on Table 1.

T. cruzi epimastigotes [3] = test: T. cruzi epimastigote multiplication in culture (parasite counting); assay type: cell-based, Trypanosoma cruzi (Y strain)
mammalian eIF2α kinases = system: mammalian eIF2α kinases; parameters: method as in PMID 21765405, PMID 28590739; settings: cited from earlier work

SMILES	activity on heme regulated kinase leading to eIF2α phosphorylation (heme regulated kinase)	multiplication of T. brucei PCF [1]	EC50 (T. cruzi epimastigotes [2]) [µM]	EC90 (T. cruzi epimastigotes [2]) [µM]	effect on T. cruzi epimastigote multiplication at 10 µM (T. cruzi epimastigotes [3]; 10 µM, three days in culture medium)	inhibition of epimastigote multiplication (counting) (T. cruzi epimastigotes [3]; all tested concentrations, 48 hours, Fig. 1A)	activation of mammalian eIF2α kinases (mammalian eIF2α kinases)
O=C(Nc1ccc(Cl)c(Cl)c1)Nc1ccc2nnsc2c1 [BTdCPU, 1-(benzo [d][1,2,3]thiadiazol-6-yl)-3-(3,4-dichlorophenyl) urea]	activator	–	–	–	–	–	–
O=C(Nc1ccc(Cl)c(Cl)c1)Nc1cc([N+](=O)[O-])ccc1Cl [NCPdCPU, 1-(2-chloro-5-nitrophenyl)-3-(3,4-dichlorophenyl) urea]	inactive	not	> 10	> 10	unable to produce any visible effect; also recorded: no activity	minimal inhibition	failed to activate
O=C(Cn1ccnc1[N+](=O)[O-])NCc1ccccc1 [BZN, Benznidazole]	–	–	211 ± 3	960 ± 25	–	–	–
